The record followed here is patent publication US20140051650A1, “VAGINAL COMPOSITIONS BASED ON ALKYL POLYGLUCOSIDES” (EFFIK S.A., priority 2011, published 2014).

Common to all, as to assay type: cell-based
For assay [1], the system named is Gardnerella vaginalis ATCC 14018. The experiment in a line: MIC against Gardnerella vaginalis. As to conditions: substance alone. As for the experimental part: (§1) The Gardnerella vaginalis ATCC 14018 strain, the Neisseria gonorrhoeae ATCC 43069 strain and the Candida albicans ATCC 10231 strain were also used for the experiment.
(§2) The other assayed microbial strains were cultured in the liquid media and in the incubation conditions specified in table A, following the operating procedure described above.
(§3) The assay was carried out in 96-well microtitre plates. 50 μl of substance solution at the “mother” concentration alongside 50 μl of liquid medium at double concentration were deposited in the first well of each of the 8 rows while 50 μl of liquid medium at normal concentration were deposited in the remaining 11 wells. Starting from the first well of each row, 50 μl volumes were transferred from each well to the subsequent one 10 times, thus obtaining a series of 11 dilutions after doubling. The 12th well of each row was kept substance-free as a function of positive control of the bacterial growth.
Subsequently, 50 μl of diluted bacterial inoculum as specified previously were deposited in all wells of the plate, except for the 11th of each row. Only the liquid medium at single concentration but bacteria-free, was deposited in the 11th well, with the aim of providing negative control for each row. The described scheme was used for the assay with each of the assayed microbial strains. […]

The test system of assay [2] is Neisseria gonorrhoeae ATCC 43069. The experiment in a line: MBC against Neisseria gonorrhoeae. As to conditions: substance alone. As for the experimental part: (§4) The Gardnerella vaginalis ATCC 14018 strain, the Neisseria gonorrhoeae ATCC 43069 strain and the Candida albicans ATCC 10231 strain were also used for the experiment. [table] The other assayed microbial strains were cultured in the liquid media and in the incubation conditions specified in table A, following the operating procedure described above. Immediately after determining the value of the MIC for each substance, a volume equivalent to 50 μl was taken from each well and streaked on the surface of plates containing the solid medium. The plates were subsequently incubated at the conditions indicated for each microbial strain. After incubation at 37° C. for 24 hours, the number of colonies grown on the medium surface was counted thus determining the number of bacteria that survived after 24 hours of contact with the substance at the concentration present in the well. The MBC value defined as the lowest concentration of each substance capable of reducing the bacterial load by 99.9% in the previously defined assay conditions was determined through comparison between the number of bacteria that survived in each well and that of the bacterial inoculum deposited initially.

Assay [3] relates to Gardnerella vaginalis ATCC 14018. The experiment in a line: MBC against Gardnerella vaginalis. As to conditions: substance alone. As for the experimental part:
as §4

Assay [4] has as its system Candida albicans ATCC 10231. In words: MIC against Candida albicans. Particulars: substance alone. As for the experimental part: as §1, §2, §3
Subsequently, 50 μl of diluted bacterial inoculum as specified previously were deposited in all wells of the plate, except for the 11th of each row. Only the liquid medium at single concentration but bacteria-free, was deposited in the 11th well, with the aim of providing negative control for each row. The described scheme was used for the assay with each of the assayed microbial strains.
After incubation at the conditions indicated regarding each micro-organism, the microtitre plates were examined to verify, in each well, the presence or absence of bacterial growth. The minimum inhibitory concentration is defined as the lowest concentration of the substance still capable of inhibiting bacterial growth i.e. preventing the liquid from becoming turbid within the well.

The next assay has as its system vaginal lactobacilli. In words: Activity on vaginal lactobacilli compared with the pathogen strains. As to conditions: lactobacilli versus G. vaginalis. As for the experimental part: By comparison, the lactobacillus strains dominating in the physiological colonization of the vaginal mucosa typical in healthy women were also tested. Thus, such explorative activity was carried out on such strains with the aim of evaluating a selectivity of the compounds of the invention with respect to the pathogenic microorganisms with respect to the lactobacillus bacterial flora. Immediately after determining the value of the MIC for each substance, a volume equivalent to 50 μl was taken from each well and streaked on the surface of plates containing the solid medium. The plates were subsequently incubated at the conditions indicated for each microbial strain. After incubation at 37° C. for 24 hours, the number of colonies grown on the medium surface was counted thus determining the number of bacteria that survived after 24 hours of contact with the substance at the concentration present in the well. The MBC value defined as the lowest concentration of each substance capable of reducing the bacterial load by 99.9% in the previously defined assay conditions was determined through comparison between the number of bacteria that survived in each well and that of the bacterial inoculum deposited initially.

Take “lauryl glucoside/C12-C16 alkyl polyglucoside [Substance A2]”: the MIC in assay [1] is 0.0048%; in assay [4], 0.077%. The MBC entry in assay [2] is “≦0.0012%”; in assay [3] it was 0.0048%. The “MBC values in vaginal lactobacilli, times higher than those observed in G. vaginalis” value against vaginal lactobacilli is reported as “about 15 times”.
